Test results taken from US20040214803A1, “Use of vitamin d3 analogue for the treatment of autoimmune diabetes” (priority 2001, published 2004).

Columns and labels:
Type in all cases: in vivo, mouse
NOD mice = assay: Type 1 DM development in NOD mice (blood glucose monitoring); conditions: NOD female mice, 0.03 μg/Kg per os
Experimental: The non-obese (NOD)/Lt mice used for the experiments were purchased from Charles River Laboratories (Calco, Italy). All mice were kept under specific pathogen-free conditions. Glucose levels in the tail venous blood were quantified using a EUROFlash (Lifescan, Issy les Moulineaux, France). A diagnosis of diabetes was after two sequential glucose measurements higher than 200 mg/dl.
1,25-dihydroxy-16,23Z-diene-26,27-hexafluoro-19-nor vitamin D3, was dissolved in ethanol (1 mg/ml) and then diluted in miglyol 812. NOD/Lt. The mice were dosed orally with vehicle (miglyol 812) alone or vehicle containing Compound A (0,03 μg/Kg body weight) 5×/week from 8 to 12 or from 8 to 16 weeks of age.
NOD female mice were treated […] with Compound A (0.03 μg/Kg body weight per os) or vehicle from 8 to 12 or 16 weeks of age and glycemia levels were monitored until 38 weeks of age. […] About 90% of vehicle-treated controls were diabetic by 38 weeks of age compared to only 50% of mice treated with Compound A from 8 to 12 weeks of age. A longer treatment, from 8 to 16 weeks of age, afforded higher protection, and only 16% of NOD mice developed type 1 DM.
FIG. 1. (page 1/9) Compound A administration to 8-week-old NOD mice inhibits type 1 DM development. NOD mice were treated 5×/week with vehicle (open circles) or with 0.03 μg/Kg Compound A p.o. (filled circles) from 8 to 16 weeks of age, or from 8 to 12 weeks of age (filled squares). Type 1 DM development was monitored twice weekly by measurement of blood glucose levels. The P values were calculated by Mann-Whitney U test.

[1] = tested on: pancreatic islets of NOD mice; assay: Insulitis scoring and immunohistology of pancreas sections
Experimental: Pancreata were snap-frozen in Tissue Tek (Miles Laboratories, Elkhart, Ind.), and 5-μm-thick sections stained with hematoxilin and eosin. Insulitis score was quantified as follows: 0, no insulitis; 1, peri-insulitis; 2, insulitis in <50% of the islet; 3, insulitis in >50% of the islet. A mean score was calculated from 40-50 islets per individual pancreas. In addition, pancreas cryostat sections were stained with biotinylated mAb directed against CD4, CD8, B220, CD11b (all purchased from PharMingen), or CD11c (N418; American Type Culture Collection, Manassas, Va.), followed by streptavidin-peroxidase conjugate. […]
NOD female mice were treated daily with Compound A (0.03 μg/Kg body weight per os) or vehicle from 8 to 12 or 16 weeks of age and glycemia levels were monitored until 38 weeks of age. […]
FIG. 2. […] The results refer to the mean values ±SE of 8 mice/group, except for 1,25-dihydroxy-16,23Z-diene-26,27-hexafluoro-19-nor vitamin D3-treated mice where three mice were scored. The P values were calculated by Mann-Whitney U test. The severity of the infiltrate is shown in the right panel Islets from the same mice were scored for absence of insulitis (□, peri-insulitis (□), moderate insulitis with <50% infiltration of the islets ( ? ) , and severe insulitis, with >50% of infiltration of the islets (▪). […]

[2] = tested on: vascularized heart allograft; assay: Vascularized heart allograft survival, C57BL/6 into BALB/c recipients
Text: Fully vascularized hearts were grafted into the abdomen of recipient mice as described (Corry, R. J., H. J. Winn, and P. S. Russell. Primarily vascularized allografts of hearts in mice. The role of H-2D, H-2K, and non-H-2 antigens in rejection. Transplantation. 1973, 16:343). Graft survival was monitored by palpation and rejection was confirmed by direct graft inspection.

Structure (SMILES): C[C@H](C/C=C\C(O)(C(F)(F)F)C(F)(F)F)C1=CC[C@H]2/C(=C/C=C3C[C@@H](O)C[C@H](O)C3)CCC[C@]12C [Compound A, 1,25-dihydroxy-16,23Z-diene-26,27-hexafluoro-19-nor vitamin D3]
- incidence of disease compared to controls (NOD mice; from 8 to 12 or 16 weeks of age): significantly lower
- diabetic by 38 weeks of age (NOD mice; treated from 8 to 12 weeks of age, vehicle controls about 90%): 50%
- developed type 1 DM (by 38 weeks of age) (NOD mice; treated from 8 to 16 weeks of age, vehicle controls about 90%): 16%
- functional islet β cells (positive staining for insulin) ([1]; at 30 weeks of age, compared to vehicle-treated NOD mice at 30 weeks): more frequent
- score and severity of insulitis ([1]; treated 8 to 16 weeks, analysed at 30 weeks of age, compared to 8 weeks old NOD mice): similar
- Graft survival (days) Mean ([2]; 0.01 μg/kg po (d-1, 0, +1) then 0.003 μg/kg po (d+2 until d+30)): 12.00 days
- Graft survival (days) Mean ([2]; 0.1 μg/kg po (d-1, 0, +1) then 0.03 μg/kg (d+2 until d 15)): 38.20 days
